How the values were obtained:
[1] = test system: human mammary epithelial cells (HMECs); test: LDH assay in healthy human mammary epithelial cells; assay type: cell-based; conditions: 1, 2, 5, 10 and higher nM doses, 48 hrs
Method: FIG. 11 illustrates an embodiment of the present invention and illustrates SIM-1 and SIM-2 induced apoptosis in MDA-MB-468 TNBC cells, but not HMEC control cells. MDA-MB-468 cells were treated with increasing doses of (A) SIM-1 and (B) SIM-2 for 48 hrs followed by lactate dehydrogenase (LDH) release assay in the supernatants. The result was offset with cell-bound LDH and presented as a percent of DMSO control as discussed under method section. Half-maximal cytotoxicity or CT50 analyses were performed plotting maximum response as an index of increasing doses of (C) SIM-1 and (D) SIM-2. AnnexinV (green) and propidium iodide (red) dual-labeling were performed to evaluate apoptotic response in MDA-MB-468 cells once treated with increasing doses of (E) SIM-1 and (F) SIM-2 for 24 hrs. Nuclei were stained with DAPI. TUNEL assay was performed in MDA-MB-468 cells after treatment with 25 nM of (G) SIM-1. Brown-colored TUNEL bodies were visualized at cresyl violet-stained blue nuclei. (H) The number of TUNEL bodies were counted as a percent of 100 cresyl violet-stained blue cells. Ten independent images were counted for the quantification study. Similarly, SIM-2 was assessed for (I) TUNEL and (J) subsequent quantification analyses. […]
LDH Assay. […] Each dose was measured in triplicates. […] The plate was read at 490 nm (background at 680 nm). […]

purified STAT1 protein = molecular target: T1, purified STAT1 protein (Homo sapiens, UniProt P42224); test: Protein thermal shift (PTS) assay of STAT1; assay type: binding; conditions: for ΔTm at 0.02 µM: 20 nM
T1 sequence (P42224 1-750): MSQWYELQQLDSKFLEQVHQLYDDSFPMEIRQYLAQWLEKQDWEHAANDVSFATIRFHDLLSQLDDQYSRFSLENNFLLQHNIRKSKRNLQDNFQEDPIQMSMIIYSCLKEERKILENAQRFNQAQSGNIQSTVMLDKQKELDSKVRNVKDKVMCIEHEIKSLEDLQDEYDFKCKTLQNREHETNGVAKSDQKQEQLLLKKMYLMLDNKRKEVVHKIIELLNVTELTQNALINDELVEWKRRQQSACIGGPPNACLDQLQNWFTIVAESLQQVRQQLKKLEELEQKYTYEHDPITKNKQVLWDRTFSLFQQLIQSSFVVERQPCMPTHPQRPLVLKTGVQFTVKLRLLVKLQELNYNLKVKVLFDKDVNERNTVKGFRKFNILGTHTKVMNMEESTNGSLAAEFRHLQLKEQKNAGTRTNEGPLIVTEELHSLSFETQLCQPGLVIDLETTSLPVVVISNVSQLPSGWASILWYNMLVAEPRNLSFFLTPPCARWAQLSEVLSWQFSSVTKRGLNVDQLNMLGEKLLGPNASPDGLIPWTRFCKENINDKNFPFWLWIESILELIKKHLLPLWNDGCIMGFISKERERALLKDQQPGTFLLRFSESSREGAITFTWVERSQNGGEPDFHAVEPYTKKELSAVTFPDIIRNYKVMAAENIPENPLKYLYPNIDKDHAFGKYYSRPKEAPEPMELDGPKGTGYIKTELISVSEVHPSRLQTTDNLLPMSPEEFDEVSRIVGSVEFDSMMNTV
Method: FIG. 5 illustrates an embodiment of the present invention and illustrates evaluations of SIM-1 and SIM-2 as STAT3 inhibitors. (A) Protein thermal shift assay was performed to assess the melting of purified recombinant STAT3 (blue; 0.5 μg protein) (Tm=melting temperature=68.88° C.). The representative melting curves were derived after adding SIM-1 (red; 4 nM), SIM-2 (purple; 8 nM), and positive control stattic (grey; 20 nM) to the STAT3 protein. The differences of melting temperature (ΔTm) between pure protein and protein+ligands are −4.54° C., −4.16° C., and 0.39° C. for SIM-1, SIM-2, and stattic (ΔTm^cut-off>2° C.). (B) Phospho protein array analysis was conducted in cell lysates of MDA-MB-468 cells treated with DMSO control (top left), 25 ng/mL EGF (top right), EGF+10 nM SIM-1 (bottom left), and EGF+SIM-2 (bottom right) for 24 hrs. Each colored arrowhead represents a specific phosphoprotein, and the description was added in the bottom of array images. S=serine and Y=tyrosine. Relative levels of (C) Tyrosine 705 (Y705) phosphorylated STAT3, (D) Serine 727 (S727) phosphorylated STAT3, (E) Tyrosine 693 (Y693) phosphorylated STAT4, (F) Tyrosine 694 ([…]) phosphorylated STAT5A had been derived after normalizing the spot densities (n=5) with respective β-actin spots. Results are mean±SD of five different spot analyses. One-way ANOVA was adopted to test the significance of mean between groups at **p<0.01, and ****p<0.0001. Ns=no significance. Thermal shift assays of increasing doses of (G) SIM-1, (H) SIM-2, and (I) stattic with purified STAT1 protein (0.5 μg protein). The respective ΔTm values were given with the plot after matching with the color code. Similarly, full-length STAT5b protein melting was assessed with (J) SIM-1, (K) SIM-2, and (L) stattic. Results are confirmed after three different experiments.
To confirm the result, PTS assay of STAT1 with SIM-1 (FIG. 5G), SIM-2 (FIG. 5H), and stattic (FIG. 5I) was performed. […] Similar results were observed while performing the binding assay with STAT5b.

SMILES	cell death in HMEC cells (LDH) compared to DMSO control [1]	ΔTm at 0.01 µM (purified STAT1 protein; 10 nM)	ΔTm at 0.02 µM (purified STAT1 protein)	ΔTm of STAT1 (purified STAT1 protein; concentration printed only as 'nM' (figure missing))
CCOC(=O)c1c(NC(C)=O)sc2c(Cl)c(/C=N/O)ccc12 [SIM-2, ethyl 2-acetamido-7-chloro-6-(hydroxyiminomethyl)-1-benzothiophene-3-carboxylate]	unable to augment any significant cell death	0.46 °C	0.89 °C	
O=C(O)CCC(=O)NCc1csc2ccc(Cl)cc12 [SIM-1, 4-[(5-chloro-1-benzothiophen-3-yl)methylamino]-4-oxobutanoic acid]	unable to augment any significant cell death		0.29 °C	0.41 °C

Reference: patent publication US20250255847A1, “[…]s: Novel Drugs for Triple Negative Breast Cancer” (SIMMARON RSEARCH INC, priority 2024, published 2025)
